From patent US7666842B2, “Elastin peptide analogs and uses thereof” (Connective Tissue Imagineering, LLC, priority 1998, dated 2010)
Ends that are not written are not given here.

Key:
rat skin = experiment: H&E histology of treated rat skin (Example 6); format: in vivo; details: for Outer (keratin) layer and vascularity of the inner layer: treated skin sections; for Thickness of the dermal layer of skin: vs untreated controls (both shaven and unshaven)
Procedure: Rat skin was treated with 7-hydroxy DHEA and 7-hydroxy isoandrosterone. Skin cross sections were stained with hematoxylin and eosin (H&E) and examined histologically. […] The DHEA and derivatives induction of dermal thickening was reversible. A subset of experimental animals within each treatment group were left untreated for 30 days. Upon examination, treated skin sections were indistinguishable from the untreated. Concomitant toxicological studies found no significant toxicity when the compounds were used at 0.5% concentration in a suitable carrier applied twice daily (12 hour intervals) for 30 days.

[1] = In-vitro oxygen radical assay (luminol chemiluminescence, hydrogen peroxide); format: biochemical; details: diluted luminol pre-incubated with compound; 100 μg/ml for DHEA
Procedure: The ability of a compound to scavenge free radicals may implicate it as an anti-oxidizing agent. To test whether DHEA or it derivatives had the ability to capture free radicals, an in-vitro oxygen radical assay was used. The assay was run in quadruplicate to perfect the concentrations of controls as well as test the diluents (phosphate buffered saline (PBS) and DMSO) in which the DHEA and its derivatives were dissolved. The positive controls used were homocysteine and ascorbic acid (Vitamin C).

[2] = tested on: skins of neonatal male Sprague-Dawley rats; experiment: Collagen content of neonatal rat skin (hydroxyproline); format: in vivo; details: 0.5% in carrier twice daily, 30 days; five animals per group
Procedure: (§1) DHEA and the derivative compounds of DHEA (the 7 hydroxy derivative and 7 hydroxy-isoandrosterone) modified the elastin and collagen contents of neonatal rat skin when applied twice daily over a 30 day period at a concentration of 0.5% in a suitable carrier.
(§2) Collagen and elastin contents were measured on dry, defatted, hair-free skin samples. Collagen contents were assessed through hydroxyproline evaluations in hydrolyzed, 0.1N hot sodium hydroxide extracts. Elastin contents were measured by HPLC evaluation of the contents of thermolysin-produced peptides in digests of the hot sodium hydroxide residue. Controls were both shaven and unshaven, the shaven receiving only the carrier twice daily.
(§3) Elastin contents were increased by all the compounds (28% for DHEA, 30% for the 7 hydroxy derivative and the 7 hydroxy-isoandrosterone). In these studies, statistical analysis of variance was significant at an alpha level of 0.01. Similar to the histological observations, these chemistries were reversible. Collagen and elastin contents returned to near normal levels after cessation of treatment for 30 days.

[3] = tested on: skins of neonatal male Sprague-Dawley rats; experiment: Elastin content of neonatal rat skin (HPLC of thermolysin-produced peptides); format: in vivo; details: 0.5% in carrier twice daily, 30 days; five animals per group
Procedure: as §1, §2, §3

human keratinocytes [4] = experiment: Viability of human keratinocytes (MTT); format: cell-based; details: 10^−4 M to 10^−8 M
Procedure: Human keratinocytes were obtained from surgical items and were cultivated in a monolayer until preconfluence. The 7α-hydroxy-DHEA was administered to these cultures at various concentrations in ethanolic solution (10%), each concentration being tested eight times. Controls were carried out with ethanol alone (10%). After twenty-four hours, the viability of the keratinocytes was measured by testing with MTT (3-(4,5-dimethylthiazol-2-yl)-2,5 diphenyl tetrazolium bromide) where the mitochondrial dehydrogenase succinate converts the MTT into blue crystals of formazan soluble in DMSO (Mosmann, J. Immunol. Methods 65: 55-63, 1983). The cellular viability is calculated according to the formula: % viability=DO540 product×100/DO540 control.
A value greater than 100 indicates a product that encourages cellular viability.

human fibroblasts = experiment: Proliferation of human fibroblasts in culture (cell count); format: cell-based; details: 72 hours of contact, control 190,667 ± 6,766
Procedure: Cultures of human fibroblasts (from a person) were seeded on twenty-four site plates at the rate of 50,000 cells per site in a standard culture medium (DMEM, gentamycine, amphotericine B, penicillin, L-glutamine, 10% SVF). The tests were carried out on four series of three sites. After twenty-four hours, the fibroblasts adhered to the support and three series were treated with 7α-hydroxy-DHEA at concentrations of 10^−6 M, 5×10^−6 M and 10^−7 M. The fourth series only contained the vector (ethanol). The media were renewed daily, and at ninety-six hours (seventy-two hours of test contact with the 7α-hydroxy-DHEA), the fibroblasts were counted on a Malassez cell in the presence of blue trypan.

human keratinocytes [5] = experiment: Anti-radical effect on UVA-irradiated human keratinocytes (lipoid peroxides, chemiluminescence); format: cell-based; details: 10^−6 M
From the text: Keratinocytes from a healthy donor were cultivated to the subconfluent stage in a specific medium (KGM) for the proliferation of keratinocytes. The suspensions obtained were split up, in triplicate, into four series, of which three were irradiated for thirty minutes with a lamp emitting UVA so as to speed up the production of free radicals. Among the three irradiated series, one contained Vitamins C and E (0.7%) and was used as a protection reference; one contained 7α-hydroxy-DHEA at 10^−6 M and the last served as a control.
The free radicals produced generated lipoid peroxides which are measured by chemiluminescence (Belghmi et al. J Biolum. Chemilum. 2: 113-119, 1982). The effectiveness of the 7α-hydroxy-DHEA was calculated on the basis of non-irradiated controls and the protection reference.

RFL-6 cells [6] = experiment: BrdUTP incorporation assay (mRNA, green fluorescence) in RFL-6 cells; format: cell-based; details: sub-fractions of Fraction #3 (HPLC peaks at 215 nm); Blank (Background) 30
Procedure: A study was performed to determine whether different peptides had different activities in promoting skin health. Elastin protein was partially digested with thermolysin and the resulting peptides (i.e., SEQ ID 1-SEQ ID 41) were applied to an HPLC column. Five fractions containing clusters of peptides were collected from the column in the 5-50 minute range. The fractions were tested for activity using a bromodeoxyuridine Triphosphate (BrdUTP) incorporation assay in RFL-6 cells. The assay measures production of mRNA involved in protein synthesis.
Fraction #3 was sub-fractionated into 10 fractions corresponding to ten major peaks identified on the HPLC (at 215 nm). Table VI below illustrates the green fluorescence intensity as a measure of increased mRNA in RFL-6 cells in response to sub-fractionated portions of Fraction #3.

RFL-6 cells [7] = experiment: Tritiated thymidine incorporation in RFL-6 cells; details: synthetic peptides, 24 hour incubation with RFL-6 cells
Procedure: Synthetic peptides were tested for their ability to stimulate incorporation of tritiated thymidine with a 24 hour incubation with RFL-6 cells.

[8] = tested on: skin of Sprague-Dawley male rats; experiment: Elastin content of rat skin after topical treatment (Example 2); format: in vivo; details: topical DHEA, 5% concentration, similar time period; S CONTR 1.408, US CONTR 2.291
Procedure: Topical treatment of Sprague-Dawley male rats with a composition including peptides (i.e., SEQ IDs 1-41) at a concentration of about 1.3% (wt/wt) of the formulation over a one month period was performed. The rats were treated topically with a 1.3% concentration (wt/wt) of the preparation of the hydrophilic elastin peptide for a period of 30 days. […] Three animals each were used to generate the data for S CONTR, US CONT, and DHEA and eleven animals were used for HEP. Three skin samples from the treated areas of each animal were taken for study, and the three results from each animal were averaged. […] The elastin content of the skin was determined by a precise assay for rat elastin developed by Sandberg, et al. (Connective Tissue Research 25:139-48, 1990) the assay portion of which is hereby incorporated herein by reference thereto. […]
An alpha level less than 0.001 for the data as determined by analysis of variance is significant because there is less than one chance in a thousand that the findings occur by chance.

skin of treated rats = experiment: Fluorescent micrographs of skin cross-sections stained with anti-fibronectin antibodies (Example 3); format: in vivo, rat; details: FIG. 2C DHEA topical, FIG. 2D peptide composition
From the text: FIGS. 2A-D are fluorescent micrographs of fixed skin cross-sections taken from rats treated as described in Example 3, and stained with fluorescein-conjugated anti-fibronectin antibodies. FIG. 2A is a representative sample from the unshaven control tissue; FIG. 2B is a representative sample from the shaven control sample; FIG. 2C is a representative sample of tissue which received DHEA topical treatment; and FIG. 2D is a representative sample of tissue which received treatment of a composition containing peptides, as described in Example 2. In each of the panels, the dermal layer of the skin is indicated by a bracket.
The capillary venules are shown in this figure as brightly stained oval bodies that lie beneath the dermal layer. The increase in the concentration of endothelial cells in the subdermal region indicates an increase in capillary density and therefore illustrates the potential for the peptides and formulations of the present invention to be used for the formation of blood vessels or capillary venules (neovascularization or angiogenesis).

Molecule: C[C@]12CC[C@H](O)CC1=C[C@H](O)[C@@H]1[C@@H]2CC[C@]2(C)C(=O)CC[C@@H]12 [7-hydroxy DHEA]
- Outer (keratin) layer and vascularity of the inner layer (rat skin): no change in the outer (keratin) layer nor increase of vascularity of the inner layer
- Thickness of the dermal layer of skin (rat skin): thickened to nearly twice that of the untreated controls
- Reduction of luminol light emission [1]: did not cause any reduction
- Collagen increased by [2]: 24%
- Elastin contents increased by [3]: 30%

Molecule: C[C@]12CC[C@H](O)CC1=C[C@@H](O)[C@@H]1[C@@H]2CC[C@]2(C)C(=O)CC[C@@H]12 [7α-hydroxy-DHEA, 3β,7α-dihydroxy-5-androstene-17-one]
- Cytotoxicity on human keratinocytes (human keratinocytes [4]): no cytotoxicity was observed
- Number of Fibroblasts (human fibroblasts; 5 × 10^−6 M): 258,667 ± 3,351
- Number of Fibroblasts (human fibroblasts; 10^−6 M): 268,000 ± 27,154
- Number of Fibroblasts (human fibroblasts; 10^−7 M): 230,667 ± 8,511
- Chemiluminescence (human keratinocytes [5]; UVA irradiated 30 minutes, non irradiated 2,529 ± 153, irradiated controls 427,750 ± 137,322): 44,164 ± 13,303
- Effectiveness (human keratinocytes [5]; UVA irradiated, calculated on non-irradiated controls and protection reference): 90%

Molecule: C[C@]12CC[C@H](O)C[C@@H]1CC(O)[C@@H]1[C@@H]2CC[C@]2(C)C(=O)CC[C@@H]12 (some centres unmarked) [7-hydroxy isoandrosterone]
- Outer (keratin) layer and vascularity of the inner layer (rat skin): no change in the outer (keratin) layer nor increase of vascularity of the inner layer
- Thickness of the dermal layer of skin (rat skin): thickened to nearly twice that of the untreated controls
- Reduction of luminol light emission [1]: 15%
- Collagen increased by [2]: 24%
- Elastin contents increased by [3]: 30%

Molecule: Valine-Glycine-Proline-Alanine [SEQ ID 14]
- % Change of Green Fluorescence Intensity (RFL-6 cells [6]): 39%

Molecule: Valine-Glycine-Valine-Hydroxy-proline-Glycine [SEQ ID 23]
- % Change of Green Fluorescence Intensity (RFL-6 cells [6]): 57%

Molecule: Valine-Valine-Proline-Glutamine-Amide [SEQ ID 42]
- Tritiated thymidine incorporation, % CPM above the control (RFL-6 cells [7]): ~1 % CPM above the control

Molecule: Acetyl-VVPQ (Ac-VVPQ; listed as Homo sapiens) [SEQ ID 43]
- Tritiated thymidine incorporation, % CPM above the control (RFL-6 cells [7]): ~1 % CPM above the control

Molecule: C[C@]12CC[C@H](O)CC1=CC[C@@H]1[C@@H]2CC[C@]2(C)C(=O)CC[C@@H]12 [DHEA, 3β-hydroxy-5-androstene-17-one, reference compound]
- Elastin content of the skin (mean) [8]: 1.753 μg Elastin per mg Skin Fat Fre
- Dermal layer of control skin (FIGS. 2A and B) compared to treated skin (FIGS. 2C and D) (skin of treated rats): thin compared to the thickness of the dermal layers in FIGS. 2C and D
- Reduction of luminol light emission [1]: 20%
- Collagen decrease [2]: 16%
- Elastin contents increased by [3]: 28%

Molecule: Leucine-Glycine-Alanine-Glycine-Glycine-Alanine-Glycine [SEQ ID 19]
- Tritiated thymidine incorporation, % CPM above the control (RFL-6 cells [7]): ~18 % CPM above the control

Molecule: GAVVPQ--NH2 (GAVVPQ-NH2; listed as Homo sapiens) [SEQ ID 48]
- Tritiated thymidine incorporation, % CPM above the control (RFL-6 cells [7]): ~25 % CPM above the control

Molecule: Valine-Valine-Proline-Glutamine [SEQ ID 17]
- % Change of Green Fluorescence Intensity (RFL-6 cells [6]): 85%
- Tritiated thymidine incorporation, % CPM above the control (RFL-6 cells [7]): ~28 % CPM above the control

Molecule: Valine-Tyrosine-Proline-Glycine-Glycine [SEQ ID 24]
- % Change of Green Fluorescence Intensity (RFL-6 cells [6]): 38%

Molecule: Alanine-Alanine-Alanine-Glutamine-Alanine (AAAQA; listed as Homo sapiens) [SEQ ID 22]
- % Change of Green Fluorescence Intensity (RFL-6 cells [6]): 20%

Molecule: Acetyl-GAVVPQ--NH2 (Ac-GAVVPQ-NH2; listed as Homo sapiens) [SEQ ID 44]
- Tritiated thymidine incorporation, % CPM above the control (RFL-6 cells [7]): ~5 % CPM above the control
